According to PubChem BioAssay (NCI):
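Five compound concentrations were applied to cells in 96-well plates for 48 hours; endpoints were derived by simple linear interpolation of the resulting dose-response curve. TGI marks complete inhibition of growth.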

Key:
Assay in all cases: DTP human tumour cell line panel, 48 h
[1] = system: UACC-62 melanoma
[2] = system: CCRF-CEM leukemia
[3] = system: HCT-15 colon
[4] = system: HOP-92 NSCLC
[5] = system: HL-60(TB) leukemia
[6] = system: MCF7 breast
[7] = system: SR leukemia
[8] = system: SF-539 CNS
[9] = system: NCI-H522 lung
[10] = system: BT-549 breast
[11] = system: OVCAR-3 ovarian
[12] = system: SN12C renal
[13] = system: 786-0 renal
[14] = system: MOLT-4 leukemia
[15] = system: DMS 114 small cell lung
[16] = system: SF-295 CNS
[17] = system: MALME-3M melanoma
[18] = system: HOP-18 NSCLC
[19] = system: M19-MEL melanoma
[20] = system: LXFL 529 NSCLC
[21] = system: OVCAR-5 ovarian
[22] = system: SK-MEL-5 melanoma
[23] = system: RXF-631 renal
[24] = system: HT29 colon
[25] = system: RXF 393 renal
[26] = system: DU-145 prostate
[27] = system: SNB-78 CNS
[28] = system: EKVX NSCLC
[29] = system: SK-MEL-28 melanoma
[30] = system: K-562 leukemia
[31] = system: PC-3 prostate
[32] = system: SK-MEL-2 melanoma
[33] = system: HCC-2998 colon
[34] = system: NCI-H226 lung
[35] = system: OVCAR-8 ovarian
[36] = system: A549 NSCLC
[37] = system: ACHN renal
[38] = system: U251 CNS
[39] = system: T-47D breast
[40] = system: RPMI-8226 leukemia
[41] = system: COLO 205 colon
[42] = system: KM20L2 colon
[43] = system: NCI-H460 lung
[44] = system: XF 498 CNS
[45] = system: NCI/ADR-RES ovarian
[46] = system: SF-268 CNS
[47] = system: HOP-62 NSCLC
[48] = system: IGROV1 ovarian
[49] = system: MDA-MB-435
[50] = system: MDA-N
[51] = system: DMS 273 small cell lung
[52] = system: SK-OV-3 ovarian
[53] = system: UO-31 renal
[54] = system: CAKI-1 renal
[55] = system: OVCAR-4 ovarian
[56] = system: HCT-116 colon
[57] = system: HS 578T breast
[58] = system: NCI-H23 lung
[59] = system: SNB-19 CNS
[60] = system: SNB-75 CNS
[61] = system: DLD-1 colon
[62] = system: KM12 colon
[63] = system: UACC-257 melanoma
[64] = system: M14 melanoma
[65] = system: SW-620 colon
[66] = system: TK-10 renal
[67] = system: A498 renal
[68] = system: LOX IMVI melanoma
[69] = system: MDA-MB-231 breast

N#CC1(C2SCCS2=O)C2=C(C(=O)c3ccccc3C2=O)N2CCCC21 (stereo not drawn)
TGI [1]: 6.54 µM
TGI [2]: 24.5 µM
TGI [3]: 6.63 µM
TGI [4]: 11.9 µM
TGI [5]: 6.79 µM
TGI [6]: 3.73 µM
TGI [7]: 20.7 µM
TGI [8]: 9.11 µM
TGI [9]: 5.78 µM
TGI [10]: 4.3 µM
TGI [11]: 2.04 µM
TGI [12]: 6.71 µM
TGI [13]: 18.7 µM
TGI [14]: 19.7 µM
TGI [15]: 6 µM
TGI [16]: 7.82 µM
TGI [17]: 1.27 µM
TGI [18]: 8.16 µM
TGI [19]: 0.788 µM
TGI [20]: 8.06 µM
TGI [21]: 9.39 µM
TGI [22]: 1.1 µM
TGI [23]: 5.3 µM
TGI [24]: 14.2 µM
TGI [25]: 10.9 µM
TGI [26]: 4.93 µM
TGI [27]: 6.89 µM
TGI [28]: 13.9 µM
TGI [29]: 7.8 µM
TGI [30]: 25.7 µM
TGI [31]: 14.7 µM
TGI [32]: 4.12 µM
TGI [33]: 11.8 µM
TGI [34]: 10.7 µM
TGI [35]: 7.83 µM
TGI [36]: 6.26 µM
TGI [37]: 16.2 µM
TGI [38]: 11.3 µM
TGI [39]: 8.16 µM
TGI [40]: 9.91 µM
TGI [41]: 5.71 µM
TGI [42]: 19.3 µM
TGI [43]: 11.8 µM
TGI [44]: 8.15 µM
TGI [45]: 10.2 µM
TGI [46]: 11.2 µM
TGI [47]: 14.9 µM
TGI [48]: 5.76 µM
TGI [49]: 1.3 µM
TGI [50]: 1.55 µM
TGI [51]: 12.2 µM
TGI [52]: 51.7 µM
TGI [53]: 14.2 µM
TGI [54]: 15 µM
TGI [55]: 4.09 µM
TGI [56]: 5.56 µM
TGI [57]: 12.8 µM
TGI [58]: 3.51 µM
TGI [59]: 16.8 µM
TGI [60]: 8.04 µM
TGI [61]: 14.1 µM
TGI [62]: 13.1 µM
TGI [63]: 2.99 µM
TGI [64]: 2.77 µM
TGI [65]: 6.41 µM
TGI [66]: 43.7 µM
TGI [67]: 13 µM
TGI [68]: 6.53 µM
TGI [69]: 9.21 µM

O=C(CN1CCCCC1)N1CCc2c([nH]c3ccccc23)C1c1cccnc1 (stereo not drawn)
TGI [1]: > 100 µM
TGI [2]: > 100 µM
TGI [3]: > 100 µM
TGI [4]: > 100 µM
TGI [5]: > 100 µM
TGI [8]: > 100 µM
TGI [9]: > 100 µM
TGI [11]: > 100 µM
TGI [12]: > 100 µM
TGI [13]: > 100 µM
TGI [14]: > 100 µM
TGI [15]: > 100 µM
TGI [16]: > 100 µM
TGI [18]: > 100 µM
TGI [19]: > 100 µM
TGI [20]: > 100 µM
TGI [21]: > 100 µM
TGI [22]: > 100 µM
TGI [23]: > 100 µM
TGI [24]: > 100 µM
TGI [25]: > 100 µM
TGI [27]: > 100 µM
TGI [28]: > 100 µM
TGI [29]: > 100 µM
TGI [30]: > 100 µM
TGI [33]: > 100 µM
TGI [35]: > 100 µM
TGI [36]: > 100 µM
TGI [37]: > 100 µM
TGI [38]: > 100 µM
TGI [40]: > 100 µM
TGI [42]: > 100 µM
TGI [43]: > 100 µM
TGI [44]: > 100 µM
TGI [46]: > 100 µM
TGI [47]: > 100 µM
TGI [48]: > 100 µM
TGI [51]: > 100 µM
TGI [52]: > 100 µM
TGI [53]: > 100 µM
TGI [54]: > 100 µM
TGI [55]: > 100 µM
TGI [56]: > 100 µM
TGI [58]: > 100 µM
TGI [59]: > 100 µM
TGI [60]: > 100 µM
TGI [61]: > 100 µM
TGI [62]: > 100 µM
TGI [63]: > 100 µM
TGI [64]: > 100 µM
TGI [65]: > 100 µM
TGI [66]: > 100 µM
TGI [67]: > 100 µM
TGI [68]: > 100 µM

O=S(O)CCCCSSCc1ccccc1CSSCCCCS(=O)O
TGI [1]: 25.3 µM
TGI [2]: 42.5 µM
TGI [3]: > 100 µM
TGI [4]: 74.7 µM
TGI [5]: 36.2 µM
TGI [8]: 64.2 µM
TGI [9]: 18.7 µM
TGI [11]: 25.2 µM
TGI [12]: > 100 µM
TGI [13]: > 100 µM
TGI [14]: 14.5 µM
TGI [15]: 35.2 µM
TGI [16]: 49.8 µM
TGI [17]: 28.5 µM
TGI [18]: > 100 µM
TGI [19]: 21.2 µM
TGI [20]: 24.8 µM
TGI [21]: > 100 µM
TGI [22]: 23.2 µM
TGI [23]: > 100 µM
TGI [24]: 20.6 µM
TGI [25]: 22.8 µM
TGI [28]: > 100 µM
TGI [29]: 31.9 µM
TGI [30]: 82.3 µM
TGI [32]: > 100 µM
TGI [33]: > 100 µM
TGI [35]: 89.5 µM
TGI [36]: > 100 µM
TGI [37]: 74 µM
TGI [38]: > 100 µM
TGI [40]: 45.8 µM
TGI [41]: 31.2 µM
TGI [42]: > 100 µM
TGI [43]: > 100 µM
TGI [44]: 25.5 µM
TGI [46]: 39.3 µM
TGI [47]: > 100 µM
TGI [48]: > 100 µM
TGI [51]: > 100 µM
TGI [52]: > 100 µM
TGI [53]: 74.4 µM
TGI [54]: 81.8 µM
TGI [55]: 18.3 µM
TGI [58]: 61.8 µM
TGI [59]: > 100 µM
TGI [60]: > 100 µM
TGI [61]: > 100 µM
TGI [62]: 59.6 µM
TGI [63]: 18.2 µM
TGI [64]: 26.7 µM
TGI [65]: 89.5 µM
TGI [66]: > 100 µM
TGI [67]: > 100 µM
TGI [68]: 28.7 µM
